Each compound was assayed against Signal transducer and activator of transcription 3 (Homo sapiens, UniProt P40763) (assay: Inhibition of STAT3 in human Hep3B cells assessed as inhibition of IL-6 stimulated STAT3 expression by luciferase reporter assay).
Chain of Signal transducer and activator of transcription 3 (P40763 whole entry): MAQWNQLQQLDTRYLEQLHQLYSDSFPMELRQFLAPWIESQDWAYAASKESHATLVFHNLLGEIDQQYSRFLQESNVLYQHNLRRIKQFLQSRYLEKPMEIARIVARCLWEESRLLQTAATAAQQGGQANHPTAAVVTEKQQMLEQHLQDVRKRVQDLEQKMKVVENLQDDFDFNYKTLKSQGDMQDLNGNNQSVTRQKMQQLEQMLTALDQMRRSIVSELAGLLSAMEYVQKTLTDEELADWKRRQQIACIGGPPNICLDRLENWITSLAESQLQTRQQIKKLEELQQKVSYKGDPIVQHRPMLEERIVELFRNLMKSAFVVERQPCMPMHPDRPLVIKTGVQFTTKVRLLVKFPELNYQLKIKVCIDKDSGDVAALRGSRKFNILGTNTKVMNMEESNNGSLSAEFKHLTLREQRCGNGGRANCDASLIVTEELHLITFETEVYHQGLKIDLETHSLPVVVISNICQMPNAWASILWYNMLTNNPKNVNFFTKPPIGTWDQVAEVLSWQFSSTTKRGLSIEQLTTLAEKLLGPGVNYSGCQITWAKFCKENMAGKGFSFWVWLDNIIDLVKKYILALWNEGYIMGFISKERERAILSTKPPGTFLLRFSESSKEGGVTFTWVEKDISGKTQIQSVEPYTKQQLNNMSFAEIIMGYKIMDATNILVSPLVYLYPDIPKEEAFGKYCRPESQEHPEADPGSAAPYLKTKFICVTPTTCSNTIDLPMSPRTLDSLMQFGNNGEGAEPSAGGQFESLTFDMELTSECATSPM

Row | Compound | IC50
1 | COc1ccc(CC[C@@H](O)C[C@H](O)CCc2ccc(OC)c(OC)c2)cc1OC | 50 µM
2 | COc1ccc(/C=C/[C@H](O)C[C@@H](O)CCc2ccc(OC)c(OC)c2)cc1OC | 19.9 µM
3 | COc1ccc(CC[C@H](O)C[C@@H](O)/C=C/c2cc(OC)c(OC)c(OC)c2)cc1OC | 37.6 µM
4 | COc1cc(/C=C/C(=O)CC(=O)CC(O)c2ccc(O)c(OC)c2)ccc1O (stereo not drawn) | 21.5 µM

Stronger by IC50, values ahead:

Row | IC50 | Compound
5 | 12.9 µM | COc1ccc(/C=C/[C@@H](C[C@@H](O)CCc2ccc(OC)c(OC)c2)OC)cc1OC
6 | 11.1 µM | COc1ccc(/C=C/C(C[C@H](O)CCc2ccc(OC)c(OC)c2)OC)cc1OC (stereo partly drawn)
7 | 4.1 µM | COc1ccc(/C=C/C=C/C(=O)/C=C/c2ccc(O)cc2)cc1
8 | 0.67 µM | O=[N+]([O-])c1ccc2c(c1)S(=O)(=O)C=C2
